Laboratory results reported in a melting point compilation (Tetko et al.; mined from patent text by program, amines drawn as free bases though some values may be those of a salt).
Residues, ends and D or L forms follow the SMILES beside them. *: point of attachment. Cbz = O=C(OCc1ccccc1)*

melting point | Structure (SMILES)
> 295 °C | CCCn1c(=O)[nH]c(=O)c2[nH]c(/C=C/c3ccccc3)nc21
162 °C | Fc1ccc(-c2ccc(-c3cc(N4CCNCC4)nnc3C(F)(F)F)cc2)cc1
258 °C | N#CC1=C(c2ccccc2)Nc2n[nH]cc2C1c1cccc2nsnc12 (configuration not stated)
73 to 75 °C | CC(C)(C)OC(=O)N1[C@H](C=CCCCO)COC1(C)C
97 to 99 °C | Cc1ccc(OCCC(CCl)NC(=O)c2c(F)cccc2F)cc1 (configuration not stated)
146 to 147 °C | CCCCNc1ncc2ccc(=O)n(C)c2n1
189 °C | COc1cc(Cc2cnc(NC(C)=Nc3ccccc3)nc2N)cc(OC)c1OC
269 to 271 °C | O=C(O)c1cccc2c1C(=O)c1ccccc1S2(=O)=O
85 °C | CCOCCn1cc(C2CCN(CCOc3ccc(C(=O)O)cc3)CC2)c2ccccc21
100 °C | Nc1nc2ccc(C(F)(F)C(F)(F)F)cc2s1
180 to 181 °C | COC=C(C(=O)OC)c1csc2ccc(C=Cc3ccccc3)cc12
149 to 151 °C | CCOC(=O)C1=C(Nc2ccccc2)CN(C(=O)c2ccccc2)C1
126 to 128 °C | CCOc1cccnc1CSCCN=C(NC)NC#N
> 260 °C | COc1cccc(OC)c1C(=O)Nc1nnc(-c2ccc(O)cc2)s1
181 to 183 °C | O=C(Nc1ccc(F)cc1)NC1C(=O)N(CC(=O)N2CCCC2)c2ccccc2N(C2CCCCC2)C1=O (configuration not stated)
218 to 220 °C | CCOc1nc(C)c(N2CCCn3c2nc2c(Cl)ccc(C(OC(F)F)C(F)(F)F)c23)c(C)n1 (configuration not stated)
51 °C | Cc1cc(OS(=O)(=O)C(F)(F)F)ccc1S(C)(=O)=O
87 to 88 °C | C=CCN1CN(C(=O)c2c(F)cccc2F)C(=O)N(c2ccc(Cl)cc2)C1
150 to 154 °C | CCCCc1nc(C(O)C(C)(C)C)c(C(N)=O)n1Cc1ccc(-c2ccccc2C(=O)O)cc1 (configuration not stated)
130 °C | Cn1c(C(=O)N2CCCC2)cc2cc(OCCNCC(O)COc3ccccc3)ccc21 (configuration not stated)
272 to 275 °C | CCCC(C(=O)O)n1c(=O)c(=O)[nH]c2ccccc21 (configuration not stated)
> 300 °C | Cc1nc2nc[nH]c2c(=O)[nH]1
73 to 75 °C | CCOC(=O)C(C)(C(=O)OCC)c1ccc(N)c(C(F)(F)F)c1

melting point | Structure (SMILES)
176 to 178 °C | OCCNCCOc1ccc(C2=C(c3ccccc3)CCCc3cc(O)ccc32)cc1
47 °C | Brc1cccc(Sc2ccccc2)n1
91 to 93 °C | CCN(C(=O)SC(C)(C)C)c1cn(-c2cccnc2)nc1Cl
113 to 116 °C | COC(=O)[C@H](Cc1ccccc1)NC(=O)[C@H](CC(=O)O)NC(=O)OCc1ccccc1 (Cbz-Asp-Phe-OMe)
112 to 116 °C | CC12C=CCC1C1CCC3=C(CCC(=O)C3)C1CC2 (configuration not stated)
56 to 59 °C | CC(C)(N)c1cc(Cl)c(Cl)c(Cl)c1
95 to 98 °C | C#Cc1cc(C(=O)OC)ccc1S(C)(=O)=O
130 to 132 °C | O=[N+]([O-])c1ccc(Cl)cc1-c1nc2ccccc2o1
101 to 102 °C | COC(=O)CCn1cc(Cc2cccnc2)c2cc([N+](=O)[O-])ccc21
175 to 176 °C | COc1cc(I)cc(C(N)=O)c1
95.5 to 96.5 °C | COCC1CN(c2ccc3ccc(OC)cc3c2)C(=O)O1 (configuration not stated)
139 to 140 °C | CCOC(=O)c1nn(-c2ccc(Cl)cc2)c2c1CCCC2
114 to 118 °C | CC(CCC1C(C)CCCC1(C)C)Oc1ccc(C(=O)O)cc1 (configuration not stated)
135 °C | Cc1nc(Cn2cnc3c2c(=O)n(C)c(=O)n3C)no1
137 to 138 °C | CCOCc1nc2cnc3cc(-c4ccccc4)ccc3c2n1CCOc1ccccc1
145 to 147 °C | Cc1cc(C)nc(SCc2nccc(SCCCSc3ccc4ncc([N+](=O)[O-])n4n3)c2C)n1
141 °C | CC(C)(C)OC(=O)N[C@H]1CC[C@H](CCN2CCN(c3nccc4c3OCC4)CC2)CC1
127 °C | COC(=O)c1[nH]c2c(C)ccc(C)c2c1S(C)=O (configuration not stated)
104 °C | COCc1nc2c(NC(=O)C(C)(C)C)cccn2c1C
88 to 90 °C | CCOC(=O)c1cc(CC)sc1Nc1ccc(C(F)F)cc1[N+](=O)[O-]
118 to 120 °C | CCCc1cnc(N2CCC(c3ccc(COc4ccc(C#N)c(F)c4)nc3)CC2)nc1
112 to 114 °C | CCC(COc1ccccc1COc1cccc2ccc(=O)[nH]c12)OC(C)=O (configuration not stated)
112 to 114 °C | CCCCSc1cc(C(=O)OCC#N)cc(S(N)(=O)=O)c1Cc1ccccc1

melting point | Structure (SMILES)
163 to 164 °C | NS(=O)(=O)c1ccc2c(c1)CCO2
68 to 72 °C | N#Cc1ncn(C2OC(COC(=O)c3ccccc3)C(OC(=O)c3ccccc3)C2OC(=O)c2ccccc2)c1C#N (configuration not stated)
301 to 303 °C | CSc1nc(-c2ccncc2)n(-c2ccc(F)cc2)c(=O)c1C#N
110 °C | CCOC(=O)C(=O)CC(=O)C(=CN(C)C)c1ccccc1
146 to 149 °C | COc1nc(C)nc(NC(=NS(=O)(=O)c2cccnc2)SC)n1
116 to 121 °C | Nc1ccc(OC(=O)C2CCCCC2)c(C(=O)O)c1
165 to 168 °C | CCOC(=O)C1=C(C(F)(F)F)Nc2n[nH]c(C)c2C1c1ccccc1Cl (configuration not stated)
132 to 135 °C | CCNc1ccc(C(=O)OC)cc1
148 °C | O=Cc1ccc2noc(-c3cccc(Cl)c3)c2c1
187 to 189 °C | Cc1ccc2c(c1)N=C(N1CCN(C)CC1)c1cc(Br)cc3c1N2CC3
55 to 57 °C | CC1(C)OCC(CN2C(=O)C3(COc4cc5c(cc43)OCCO5)c3ccccc32)O1 (configuration not stated)
94.8 to 95.9 °C | COC(=O)CC[C@@H](Cc1ccc(OCc2ccccc2)cc1)NC(=O)CCCCCCc1ccccc1
74 to 76 °C | CS(=O)(=O)c1ccc(-c2cc(=O)n(CC3CCC3)nc2-c2ccc(F)cc2)cc1
85.5 to 87.5 °C | Cc1ccccc1-c1cc(C(C)(C)C)c(O)c(C(C)(C)C)c1
98 to 100 °C | COc1cc(Cn2cccc3ncnc2-3)ccc1C(=O)N(C(C)C)C1CCCCC1
170 to 172 °C | CC(C)(C)NS(=O)(=O)c1cc2c(s1)S(=O)(=O)NCC2=O
162 to 163 °C | COc1cc(C)c(S(=O)(=O)c2ccccc2)cc1OC
194 to 196 °C | CN(C)S(=O)(=O)c1cc(-n2c(=O)cc(C(F)(F)F)n(C)c2=O)ccc1Cl
158 to 160 °C | CC(=O)n1c(-c2ccc(C#N)cc2)cc2ccccc21
81 to 83 °C | COc1cc2c(c(OC(C)=O)c1)C1CCC3(C)C(OC)CCC3C1CC2 (configuration not stated)
199 to 201 °C | CC(=O)Oc1cccc(-c2csc3nc(C45CC6CC(CC(C6)C4)C5)cn23)c1
134 °C | CC(COc1cccc(=O)n1O)CC(C)(C)C (configuration not stated)

Structure (SMILES) | melting point
NC(=O)NCc1ccc(CNC(=O)[C@@H](CCCNC(N)=N[N+](=O)[O-])NC(=O)OCc2ccc3ccccc3c2)cc1 | 155 to 160 °C
CN1CCN(C(=O)COc2cccc(-n3nc(-c4ccc(F)cc4)c4cccnc43)c2)CC1 | 132 to 135 °C
C=CCN1C2CCC1C1CCC2N1C(c1ccc(C(=O)N2CCCCC2)cc1)c1cccc(OC)c1 (configuration not stated) | 134 to 136 °C
COc1cc(Cc2cnc(N[N+](=O)[O-])[nH]c2=O)ccn1 | 194 to 196 °C
